Assay results reported in patent publication US9375000B2, “Pesticidal arylpyrrolidines” (Bayer Intellectual Property GmbH, priority 2011, dated 2016).

Tests used:
Assay type in all cases: in vivo
[1] = system: Tobacco Cutworm (Spodoptera litura) Larvae; experiment: Tobacco cutworm (Spodoptera litura) larvae, sweet potato leaf dip test; settings: dead larvae after 7 days
Method: (§1) Unless not mentioned otherwise, the test solutions were prepared as follows:
(§2) Solvent: 3 parts by weight Dimethylformamide
(§3) Emulsifier: 1 part by weight Polyoxyethylene alkyl phenyl ether
(§4) In order to make an appropriate formulation of an active compound, 1 part by weight of the active compound is mixed with the above mentioned amount of solvent and emulsifier and the mixture is diluted with water to a prescribed concentration. Ammonium salt or ammonium salt and penetration enhancer in a dosage of 1000 ppm are added to the desired concentration if necessary.
Leaves of sweet potato were immersed in the test solution at the appropriate concentration, and the leaves were dried in air. The leaves were then placed in a petri dish having a diameter of 9 cm, and ten Spodoptera litura at third instar larvae were released therein. The petri dishes were placed in a temperature-controlled chamber at 25° C. After 2 days and 4 days more sweet potato leaves were added. After 7 days, the number of dead larvae was counted to calculate the insecticidal activity. An insecticidal activity of 100% means that all larvae were killed, whereas an insecticidal activity of 0% means that no larva was killed. In the current test, the results of two petri dishes for each treatment were averaged.

[2] = system: Two-Spotted Spider Mite (Tetranychus urticae); experiment: Two-spotted spider mite (Tetranychus urticae) spray test on kidney bean; settings: after 7 days
In short: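 Kidney bean plants at the two-leaf stage carried 50-100 adult mites and were sprayed one day later with compound in DMF/polyoxyethylene alkyl phenyl ether diluted in water. Ammonium salt and penetration enhancer at 1000 ppm were added if needed. Acaricidal activity (% mites killed) was scored after 7 days in a greenhouse.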

[3] = system: Cucurbit Leaf Beetle (Aulacophora femoralis); experiment: Cucurbit leaf beetle (Aulacophora femoralis) cucumber leaf dip test; settings: active compound concentration 20 ppm; after 7 days
In short: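 Cucumber leaves dipped in compound formulated with DMF and polyoxyethylene alkyl phenyl ether, diluted in water, with ammonium salt or ammonium salt plus penetration enhancer at 1000 ppm added if necessary; dried leaves placed on sterilized soil with five second-instar larvae. Kept at 25° C; larval mortality counted after 7 days.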

Thrips palmi = Thrips palmi spray test (THRIPL); settings: after 6 days
Method: as §1, §2, §3, §4
The compound solutions are sprayed to a cucumber seedling (Cucumis sativus). After drying, the treated plant is placed in a plastic stand. About 100 thrips-eggs (Thrips palmi) on a piece of filter paper are attached to the plant and covered with a cage to keep 100% humidity. The plant is kept in a room at 23° C. After 6 days activity in % is evaluated by feeding damage degree. An insecticidal activity of 100 means that there was no feeding damage, whereas an insecticidal activity of 0% means that there is no difference to the untreated control.

[4] = system: Larvae of Spodoptera litura; experiment: Larvae of Spodoptera litura, method using artificial feeds; settings: active compound concentration 20 ppm; artificial feed; after 7 days
In short: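 Compound formulated in dimethylformamide with polyoxyethylene alkyl phenyl ether emulsifier, water-diluted and poured onto artificial diet. Five 3rd-instar Spodoptera litura larvae per cup, held at 25° C and 50-60% humidity. Mortality after 7 days expressed as pesticidal ratio.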

[5] = active compound concentration 4 ppm
[6] = active compound concentration 20 ppm

Row | Compound | insecticidal activity [1, 5] [%] | acaricidal activity [2, 5] [%] | insecticidal activity [3] [%] | insecticidal activity (by feeding damage degree) (Thrips palmi; [6]) [%] | insecticidal activity [1, 6] [%] | acaricidal activity [2, 6] [%] | insecticidal activity (pesticidal ratio) [4] [%] | insecticidal activity (by feeding damage degree) (Thrips palmi; active compound concentration 100 ppm) [%]
1 | O=C(CC(F)(F)F)NCc1ccc(N2CCC(c3cc(Cl)cc(Cl)c3)(C(F)(F)F)C2O)cc1F (mixture of isomers) [A1-101] | 80 | 100 | 100 |  |  |  |  | 
2 | O=C(CC(F)(F)F)NCc1ccc(N2CCC(c3cc(Cl)cc(Cl)c3)(C(F)(F)F)C2O)cc1Br (mixture of isomers) [A1-112] | 100 | 100 | 100 | 98 |  |  |  | 
3 | CCC(=O)NCc1ccc(N2CCC(c3cc(Cl)c(Cl)c(Cl)c3)(C(F)(F)F)C2O)cc1CC (mixture of isomers) [A1-140] | 100 | 98 |  |  |  |  |  | 
4 | CCC(=O)NCc1ccc(N2CCC(c3cc(C(F)(F)F)cc(C(F)(F)F)c3)(C(F)(F)F)C2O)cc1CC (mixture of isomers) [A1-195] | 100 | 100 | 100 |  |  |  |  | 
5 | CCC(=O)NC(C)c1ccc(N2CCC(c3cc(Cl)c(Cl)c(Cl)c3)(C(F)(F)F)C2O)cc1 (mixture of isomers) [A2-13] |  |  |  |  | 100 | 100 | 100 | 
6 | CCC(=O)NCc1ccc(N2CCC(c3cc(F)cc(Cl)c3)(C(F)(F)F)C2O)nc1C(F)(F)F (mixture of isomers) [A3-167] | 80 |  |  |  |  | 90 |  | 
7 | CC(=O)NCc1ccc(N2CCC(c3cc(Cl)c(F)c(Cl)c3F)(C(F)(F)F)C2O)nc1C(F)(F)F (mixture of isomers) [A3-210] | 100 | 100 | 100 |  |  |  |  | 
8 | O=C(NCc1ccc(N2CCC(c3cc(F)cc(Cl)c3)(C(F)(F)F)C2O)cc1C(F)(F)F)C1CC1 (centres unmarked) [A1-242] | 100 | 100 | 100 | 90 |  |  |  | 
9 | CC(=O)NCc1ccc(N2CCC(c3cc(Cl)c(F)c(Cl)c3)(C(F)(F)F)C2O)cc1C(F)(F)F (centres unmarked) [A1-271] | 100 | 100 |  |  |  |  |  | 
10 | CC(=O)NCc1ccc(N2CCC(c3cc(Cl)c(Cl)c(C(F)(F)F)c3)(C(F)(F)F)C2O)cc1C(F)(F)F (centres unmarked) [A1-348] | 100 |  | 100 |  |  | 100 |  | 
11 | CCC(=O)NCc1ccc(N2CCC(c3cc(Cl)c(Cl)c(C(F)(F)F)c3)(C(F)(F)F)C2O)cc1C(F)(F)F (centres unmarked) [A1-349] | 100 |  | 100 |  |  | 100 |  | 
12 | O=C(NCc1ccc(N2CCC(c3cc(Cl)c(Cl)c(C(F)(F)F)c3)(C(F)(F)F)C2O)cc1C(F)(F)F)C1CC1 (centres unmarked) [A1-352] | 100 |  | 100 |  |  | 100 |  | 
13 | CCC(=O)NCc1ccc(N2CCC(c3cc(Cl)c(Cl)c(Cl)c3)(C(F)(F)F)C2O)cc1 (centres unmarked) [A1-384] | 100 | 98 | 100 | 90 |  |  |  | 
14 | O=C(NCc1ccc(N2CCC(c3cc(Cl)c(Cl)c(Cl)c3)(C(F)(F)F)C2O)nc1C(F)(F)F)C1CC1 (centres unmarked) [A3-16] |  |  | 100 |  | 100 | 100 | 100 | 
15 | O=C(NCc1ccc(N2CCC(c3cc(C(F)(F)F)cc(C(F)(F)F)c3)(C(F)(F)F)C2O)nc1C(F)(F)F)C1CC1 (centres unmarked) [A3-27] |  |  | 100 |  | 100 | 100 | 100 | 
16 | CCc1nc(N2CCC(c3cc(Cl)c(Cl)c(Cl)c3)(C(F)(F)F)C2O)ccc1CNC(=O)C1CC1 (centres unmarked) [A3-93] | 100 |  | 100 |  |  | 100 |  | 

Row | Compound | insecticidal activity [1, 5] [%] | acaricidal activity [2, 5] [%] | insecticidal activity [3] [%] | insecticidal activity (by feeding damage degree) (Thrips palmi; [6]) [%] | insecticidal activity [1, 6] [%] | acaricidal activity [2, 6] [%] | insecticidal activity (pesticidal ratio) [4] [%] | insecticidal activity (by feeding damage degree) (Thrips palmi; active compound concentration 100 ppm) [%]
17 | CCC(=O)NCc1ccc(N2CCC(c3cc(Cl)c(Cl)c(Cl)c3)(C(F)(F)F)C2O)nc1Cl (centres unmarked) [A3-101] | 100 | 100 | 100 | 98 |  |  |  | 
18 | O=C(NCc1cnc(N2CCC(c3cc(Cl)cc(Cl)c3)(C(F)(F)F)C2O)nc1C(F)(F)F)C1CC1 (centres unmarked) [A4-5] | 100 | 100 | 100 | 90 |  |  |  | 
19 | O=C(CC(F)(F)F)NCc1cnc(N2CCC(c3cc(Cl)cc(Cl)c3)(C(F)(F)F)C2O)nc1C(F)(F)F (centres unmarked) [A4-7] | 100 | 100 | 100 | 90 |  |  |  | 
20 | CS(=O)(=O)CC(=O)NCc1cnc(N2CCC(c3cc(Cl)cc(Cl)c3)(C(F)(F)F)C2O)nc1C(F)(F)F (centres unmarked) [A4-11] | 100 | 100 |  | 90 |  |  |  | 
21 | CC(=O)NCc1cnc(N2CCC(c3cc(Cl)c(Cl)c(Cl)c3)(C(F)(F)F)C2O)nc1C(F)(F)F (centres unmarked) [A4-12] | 100 | 100 |  | 90 |  |  |  | 
22 | CC(=O)NCc1cnc(N2CCC(c3cc(Cl)c(F)c(Cl)c3F)(C(F)(F)F)C2O)nc1C(F)(F)F (centres unmarked) [A4-111] | 100 | 100 | 100 |  |  |  |  | 
23 | CCC(=O)NCc1cnc(N2CCC(c3cc(Cl)c(F)c(Cl)c3F)(C(F)(F)F)C2O)nc1C(F)(F)F (centres unmarked) [A4-112] | 100 | 100 | 100 | 98 |  |  |  | 
24 | O=C(NCc1cnc(N2CCC(c3cc(Cl)c(Cl)c(Cl)c3)(C(F)(F)F)C2O)cc1C(F)(F)F)C1CC1 (centres unmarked) [A5-16] | 100 |  | 100 |  |  | 100 |  | 100
25 | CC(=O)NCc1cnc(N2CCC(c3cc(Cl)c(F)c(Cl)c3F)(C(F)(F)F)C2O)cc1C(F)(F)F (centres unmarked) [A5-78] | 100 | 100 | 100 |  |  |  |  | 
26 | CCC(=O)NCc1cnc(N2CCC(c3cc(Cl)c(F)c(Cl)c3F)(C(F)(F)F)C2O)cc1C(F)(F)F (centres unmarked) [A5-79] | 100 | 100 |  | 90 |  |  |  | 
27 | O=C(NCc1ccc(N2CCC(c3cc(C(F)(F)F)cc(C(F)(F)F)c3)(C(F)(F)F)C2=O)cc1Cl)C1CC1 (centres unmarked) [B1-27] |  |  |  |  | 100 |  | 100 | 
28 | O=C(NCc1ccc(N2CCC(c3cc(Cl)c(Cl)c(Cl)c3)(C(F)(F)F)C2=O)nc1C(F)(F)F)C1CC1 (centres unmarked) [B3-16] |  |  |  |  | 100 |  | 100 | 
29 | O=C(NCc1ccc(N2CC(c3cc(C(F)(F)F)cc(C(F)(F)F)c3)(C(F)(F)F)CC2=O)nc1Cl)C1CC1 (centres unmarked) [C1-27] |  |  | 100 |  | 100 |  | 100 | 
30 | CC(NC(=O)C1CC1)c1ccc(N2CC(c3cc(C(F)(F)F)cc(C(F)(F)F)c3)(C(F)(F)F)CC2=O)cc1 (centres unmarked) [C2-27-b] |  |  | 100 |  | 100 | 100 | 100 | 
31 | O=C(NCc1ccc(N2CC(c3cc(Cl)c(Cl)c(Cl)c3)(C(F)(F)F)CC2=O)nc1C(F)(F)F)C1CC1 (centres unmarked) [C3-16] |  |  |  |  | 100 |  | 100 | 
